Measured values reported in PubChem BioAssay (NCI).
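Compound exposure: 48 hours, 5 concentrations, 96-well plates. GI50 marks 50% less growth. TGI denotes the concentration required for complete inhibition of growth.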

Legend:
Assay in all cases: NCI tumour cell line growth inhibition, 48 h
DU-145 prostate = system: DU-145 prostate
OVCAR-4 ovarian = system: OVCAR-4 ovarian
NCI-H522 lung = system: NCI-H522 lung
SNB-19 CNS = system: SNB-19 CNS
ACHN renal = system: ACHN renal
HT29 colon = system: HT29 colon
NCI-H226 lung = system: NCI-H226 lung
RPMI-8226 leukemia = system: RPMI-8226 leukemia
NCI/ADR-RES ovarian = system: NCI/ADR-RES ovarian
U251 CNS = system: U251 CNS
HCC-2998 colon = system: HCC-2998 colon
A498 renal = system: A498 renal
LOX IMVI melanoma = system: LOX IMVI melanoma
UO-31 renal = system: UO-31 renal
HOP-92 NSCLC = system: HOP-92 NSCLC
KM12 colon = system: KM12 colon
NCI-H23 lung = system: NCI-H23 lung
HS 578T breast = system: HS 578T breast
OVCAR-5 ovarian = system: OVCAR-5 ovarian
SF-268 CNS = system: SF-268 CNS
SR leukemia = system: SR leukemia
SK-MEL-28 melanoma = system: SK-MEL-28 melanoma
HCT-116 colon = system: HCT-116 colon
RXF 393 renal = system: RXF 393 renal
SW-620 colon = system: SW-620 colon
IGROV1 ovarian = system: IGROV1 ovarian
SF-539 CNS = system: SF-539 CNS
M14 melanoma = system: M14 melanoma
K-562 leukemia = system: K-562 leukemia
HOP-62 NSCLC = system: HOP-62 NSCLC
MDA-MB-231 breast = system: MDA-MB-231 breast
MDA-MB-435 = system: MDA-MB-435
A549 NSCLC = system: A549 NSCLC
MCF7 breast = system: MCF7 breast
MOLT-4 leukemia = system: MOLT-4 leukemia
COLO 205 colon = system: COLO 205 colon
SNB-75 CNS = system: SNB-75 CNS
TK-10 renal = system: TK-10 renal
NCI-H460 lung = system: NCI-H460 lung
CAKI-1 renal = system: CAKI-1 renal
SF-295 CNS = system: SF-295 CNS
UACC-62 melanoma = system: UACC-62 melanoma
SK-MEL-5 melanoma = system: SK-MEL-5 melanoma
T-47D breast = system: T-47D breast
SK-OV-3 ovarian = system: SK-OV-3 ovarian
SN12C renal = system: SN12C renal
OVCAR-3 ovarian = system: OVCAR-3 ovarian
OVCAR-8 ovarian = system: OVCAR-8 ovarian
HL-60(TB) leukemia = system: HL-60(TB) leukemia
786-0 renal = system: 786-0 renal
HCT-15 colon = system: HCT-15 colon
MALME-3M melanoma = system: MALME-3M melanoma
CCRF-CEM leukemia = system: CCRF-CEM leukemia
UACC-257 melanoma = system: UACC-257 melanoma
BT-549 breast = system: BT-549 breast

CN1CCc2c(c3ccccc3c3ccccc23)C1
GI50 (DU-145 prostate): 5.28 µM
TGI (DU-145 prostate): 20.5 µM
GI50 (OVCAR-4 ovarian): 10.3 µM
TGI (OVCAR-4 ovarian): 40.2 µM
GI50 (NCI-H522 lung): 2.76 µM
TGI (NCI-H522 lung): 8.49 µM
GI50 (SNB-19 CNS): 4.38 µM
TGI (SNB-19 CNS): 39.1 µM
GI50 (ACHN renal): 3.6 µM
TGI (ACHN renal): 14.5 µM
GI50 (HT29 colon): 4.23 µM
TGI (HT29 colon): 16.8 µM
GI50 (NCI-H226 lung): 3.77 µM
TGI (NCI-H226 lung): 29.3 µM
GI50 (RPMI-8226 leukemia): 3.66 µM
TGI (RPMI-8226 leukemia): 12.7 µM
GI50 (NCI/ADR-RES ovarian): 4.58 µM
TGI (NCI/ADR-RES ovarian): 25.3 µM
GI50 (U251 CNS): 3.85 µM
TGI (U251 CNS): 16.2 µM
GI50 (HCC-2998 colon): 5.81 µM
TGI (HCC-2998 colon): 20.2 µM
GI50 (A498 renal): 1.81 µM
TGI (A498 renal): 7.41 µM
GI50 (LOX IMVI melanoma): 3.17 µM
TGI (LOX IMVI melanoma): 11.2 µM
GI50 (UO-31 renal): 3.26 µM
TGI (UO-31 renal): 17.2 µM
GI50 (HOP-92 NSCLC): 3.31 µM
TGI (HOP-92 NSCLC): 16.7 µM
GI50 (KM12 colon): 4.91 µM
TGI (KM12 colon): 16.8 µM
GI50 (NCI-H23 lung): 5.24 µM
TGI (NCI-H23 lung): 21.7 µM
GI50 (HS 578T breast): 3.29 µM
TGI (HS 578T breast): 17.8 µM
GI50 (OVCAR-5 ovarian): 10.9 µM
TGI (OVCAR-5 ovarian): 38.1 µM
GI50 (SF-268 CNS): 6.46 µM
TGI (SF-268 CNS): 28 µM
GI50 (SR leukemia): 3.44 µM
TGI (SR leukemia): 15.6 µM
GI50 (SK-MEL-28 melanoma): 4.75 µM
TGI (SK-MEL-28 melanoma): 18.9 µM
GI50 (HCT-116 colon): 3.93 µM
TGI (HCT-116 colon): 13.5 µM
GI50 (RXF 393 renal): 4.18 µM
TGI (RXF 393 renal): 17.1 µM
GI50 (SW-620 colon): 3.59 µM
TGI (SW-620 colon): 15.3 µM
GI50 (IGROV1 ovarian): 4.45 µM
TGI (IGROV1 ovarian): 16.3 µM
GI50 (SF-539 CNS): 5.1 µM
TGI (SF-539 CNS): 18.1 µM
GI50 (M14 melanoma): 4.34 µM
TGI (M14 melanoma): 16.7 µM
GI50 (K-562 leukemia): 3.59 µM
TGI (K-562 leukemia): 14.6 µM
GI50 (HOP-62 NSCLC): 7.11 µM
TGI (HOP-62 NSCLC): 26.1 µM
GI50 (MDA-MB-231 breast): 8.62 µM
TGI (MDA-MB-231 breast): 32.2 µM
GI50 (MDA-MB-435): 4.47 µM
TGI (MDA-MB-435): 17.3 µM
GI50 (A549 NSCLC): 3.25 µM
TGI (A549 NSCLC): 18.5 µM
GI50 (MCF7 breast): 3.63 µM
TGI (MCF7 breast): 13.6 µM
GI50 (MOLT-4 leukemia): 3.78 µM
TGI (MOLT-4 leukemia): 19.9 µM
GI50 (COLO 205 colon): 3.32 µM
TGI (COLO 205 colon): 11.1 µM
GI50 (SNB-75 CNS): 6.14 µM
TGI (SNB-75 CNS): 19.9 µM
GI50 (TK-10 renal): 4.27 µM
TGI (TK-10 renal): 15.4 µM
GI50 (NCI-H460 lung): 3.67 µM
TGI (NCI-H460 lung): 13.6 µM
GI50 (CAKI-1 renal): 4.12 µM
TGI (CAKI-1 renal): 18.5 µM
GI50 (SF-295 CNS): 5.37 µM
TGI (SF-295 CNS): 33.6 µM
GI50 (UACC-62 melanoma): 4.12 µM
TGI (UACC-62 melanoma): 16.1 µM
GI50 (SK-MEL-5 melanoma): 2.97 µM
TGI (SK-MEL-5 melanoma): 11.4 µM
GI50 (T-47D breast): 5.68 µM
TGI (T-47D breast): 26.7 µM
GI50 (SK-OV-3 ovarian): 8.86 µM
TGI (SK-OV-3 ovarian): 44.2 µM
GI50 (SN12C renal): 3.74 µM
TGI (SN12C renal): 27.6 µM
GI50 (OVCAR-3 ovarian): 9.92 µM
TGI (OVCAR-3 ovarian): 25.6 µM
GI50 (OVCAR-8 ovarian): 4.46 µM
TGI (OVCAR-8 ovarian): 43.2 µM
GI50 (HL-60(TB) leukemia): 3.32 µM
TGI (HL-60(TB) leukemia): 10.2 µM
GI50 (786-0 renal): 6.23 µM
TGI (786-0 renal): 21.3 µM
GI50 (HCT-15 colon): 4.43 µM
TGI (HCT-15 colon): 51.9 µM
GI50 (MALME-3M melanoma): 3.34 µM
TGI (MALME-3M melanoma): 11.6 µM
GI50 (CCRF-CEM leukemia): 4.62 µM
TGI (CCRF-CEM leukemia): 21.5 µM
GI50 (UACC-257 melanoma): 2.87 µM
TGI (UACC-257 melanoma): 8.72 µM
GI50 (BT-549 breast): 12.4 µM
TGI (BT-549 breast): 29 µM
